Reference: PubChem BioAssay (NCI)
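Here, GI50 denotes the concentration required for 50% inhibition of growth. TGI: total growth inhibition.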

What was measured:
Assay in all cases: NCI tumour cell line growth inhibition, 384-well format
ACHN renal = system: ACHN renal
UACC-62 melanoma = system: UACC-62 melanoma
NCI-H460 NSCLC = system: NCI-H460 NSCLC
SK-OV-3 ovarian = system: SK-OV-3 ovarian
MCF7 breast = system: MCF7 breast
HCT-15 colon = system: HCT-15 colon
M14 melanoma = system: M14 melanoma
UACC-257 melanoma = system: UACC-257 melanoma
HOP-92 NSCLC = system: HOP-92 NSCLC
A549 NSCLC = system: A549 NSCLC
NCI-H226 lung = system: NCI-H226 lung
BT-549 breast = system: BT-549 breast
SR leukemia = system: SR leukemia
PC-3 prostate = system: PC-3 prostate
NCI-H522 lung = system: NCI-H522 lung
SNB-19 CNS = system: SNB-19 CNS
K-562 leukemia = system: K-562 leukemia
MDA-MB-231 breast = system: MDA-MB-231 breast
SNB-75 CNS = system: SNB-75 CNS
EKVX NSCLC = system: EKVX NSCLC
HL-60(TB) leukemia = system: HL-60(TB) leukemia
HCT-116 colon = system: HCT-116 colon
TK-10 renal = system: TK-10 renal
MALME-3M melanoma = system: MALME-3M melanoma
786-0 renal = system: 786-0 renal
OVCAR-8 ovarian = system: OVCAR-8 ovarian
OVCAR-4 ovarian = system: OVCAR-4 ovarian
SK-MEL-2 melanoma = system: SK-MEL-2 melanoma
U251 glioblastoma = system: U251 glioblastoma
SK-MEL-5 melanoma = system: SK-MEL-5 melanoma
NCI-H23 lung = system: NCI-H23 lung
HS 578T breast = system: HS 578T breast
COLO 205 colon = system: COLO 205 colon
CAKI-1 renal = system: CAKI-1 renal
MOLT-4 leukemia = system: MOLT-4 leukemia
SN12C renal = system: SN12C renal
HOP-62 NSCLC = system: HOP-62 NSCLC
OVCAR-5 ovarian = system: OVCAR-5 ovarian
A498 renal = system: A498 renal
NCI-H322M lung = system: NCI-H322M lung
KM12 colon = system: KM12 colon
UO-31 renal = system: UO-31 renal
SW-620 colon = system: SW-620 colon
MDA-MB-468 breast = system: MDA-MB-468 breast
SK-MEL-28 melanoma = system: SK-MEL-28 melanoma
T-47D breast = system: T-47D breast
HT29 colon = system: HT29 colon
IGROV1 ovarian = system: IGROV1 ovarian
SF-539 CNS = system: SF-539 CNS
OVCAR-3 ovarian = system: OVCAR-3 ovarian
DU-145 prostate = system: DU-145 prostate
RXF 393 renal = system: RXF 393 renal
SF-295 CNS = system: SF-295 CNS
MDA-MB-435 melanoma = system: MDA-MB-435 melanoma
SF-268 CNS = system: SF-268 CNS

O=C1COc2c(CCNCCN(C(=O)CCNCCc3ccc(Cl)c(Cl)c3)C3CCCCC3)ccc(O)c2N1
GI50 (ACHN renal): 15.5 µM
TGI (ACHN renal): 28.9 µM
GI50 (UACC-62 melanoma): 2.1 µM
TGI (UACC-62 melanoma): 4.82 µM
GI50 (NCI-H460 NSCLC): 2.26 µM
TGI (NCI-H460 NSCLC): 4.96 µM
GI50 (SK-OV-3 ovarian): 15.5 µM
TGI (SK-OV-3 ovarian): 28.9 µM
GI50 (MCF7 breast): 1.89 µM
TGI (MCF7 breast): 3.38 µM
GI50 (HCT-15 colon): 17.8 µM
TGI (HCT-15 colon): 31.9 µM
GI50 (M14 melanoma): 4.2 µM
TGI (M14 melanoma): 12.9 µM
GI50 (UACC-257 melanoma): 2.75 µM
TGI (UACC-257 melanoma): 6.62 µM
GI50 (HOP-92 NSCLC): 1.89 µM
TGI (HOP-92 NSCLC): 4.35 µM
GI50 (A549 NSCLC): 17.5 µM
TGI (A549 NSCLC): 31.4 µM
GI50 (NCI-H226 lung): 12.3 µM
TGI (NCI-H226 lung): 24.8 µM
GI50 (BT-549 breast): 3.29 µM
TGI (BT-549 breast): 12 µM
GI50 (SR leukemia): 1.75 µM
TGI (SR leukemia): 3.14 µM
GI50 (PC-3 prostate): 10.8 µM
TGI (PC-3 prostate): 22.8 µM
GI50 (NCI-H522 lung): 2.5 µM
TGI (NCI-H522 lung): 5.7 µM
GI50 (SNB-19 CNS): 16.8 µM
TGI (SNB-19 CNS): 30.5 µM
GI50 (K-562 leukemia): 3.24 µM
TGI (K-562 leukemia): 10.3 µM
GI50 (MDA-MB-231 breast): 1.88 µM
TGI (MDA-MB-231 breast): 10.7 µM
GI50 (SNB-75 CNS): 2.28 µM
TGI (SNB-75 CNS): 7.25 µM
GI50 (EKVX NSCLC): 12.4 µM
TGI (EKVX NSCLC): 24.9 µM
GI50 (HL-60(TB) leukemia): 1.83 µM
TGI (HL-60(TB) leukemia): 3.25 µM
GI50 (HCT-116 colon): 11.5 µM
TGI (HCT-116 colon): 23.7 µM
GI50 (TK-10 renal): 10.4 µM
TGI (TK-10 renal): 22.2 µM
GI50 (MALME-3M melanoma): 5.14 µM
TGI (MALME-3M melanoma): 15.6 µM
GI50 ([…]-0 renal): 15.8 µM
TGI (786-0 renal): 29.3 µM
GI50 (OVCAR-8 ovarian): 15.1 µM
TGI (OVCAR-8 ovarian): 28.5 µM
GI50 (OVCAR-4 ovarian): 16.1 µM
TGI (OVCAR-4 ovarian): 29.7 µM
GI50 (SK-MEL-2 melanoma): 1.79 µM
TGI (SK-MEL-2 melanoma): 3.18 µM
GI50 (U251 glioblastoma): 5.85 µM
TGI (U251 glioblastoma): 18 µM
GI50 (SK-MEL-5 melanoma): 6.31 µM
TGI (SK-MEL-5 melanoma): 18.1 µM
GI50 (NCI-H23 lung): 14.8 µM
TGI (NCI-H23 lung): 28 µM
GI50 (HS 578T breast): 1.76 µM
TGI (HS 578T breast): 3.44 µM
GI50 (COLO 205 colon): 2.69 µM
TGI (COLO 205 colon): 6.13 µM
GI50 (CAKI-1 renal): 14.5 µM
TGI (CAKI-1 renal): 27.7 µM
GI50 (MOLT-4 leukemia): 2.01 µM
TGI (MOLT-4 leukemia): 3.45 µM
GI50 (SN12C renal): 15.8 µM
TGI (SN12C renal): 29.3 µM
GI50 (HOP-62 NSCLC): 14.5 µM
TGI (HOP-62 NSCLC): 27.7 µM
GI50 (OVCAR-5 ovarian): 16.2 µM
TGI (OVCAR-5 ovarian): 29.8 µM
GI50 (A498 renal): 14.9 µM
TGI (A498 renal): 28.2 µM
GI50 (NCI-H322M lung): 14.2 µM
TGI (NCI-H322M lung): 27.3 µM
GI50 (KM12 colon): 11.1 µM
TGI (KM12 colon): 23.3 µM
GI50 (UO-31 renal): 17.8 µM
TGI (UO-31 renal): 31.7 µM
GI50 (SW-620 colon): 5.25 µM
TGI (SW-620 colon): 16.8 µM
GI50 (MDA-MB-468 breast): 1.83 µM
TGI (MDA-MB-468 breast): 3.27 µM
GI50 (SK-MEL-28 melanoma): 4.31 µM
TGI (SK-MEL-28 melanoma): 14.6 µM
GI50 (T-47D breast): 4.22 µM
TGI (T-47D breast): 14.6 µM
GI50 (HT29 colon): 13.4 µM
TGI (HT29 colon): 26.2 µM
GI50 (IGROV1 ovarian): 7.16 µM
TGI (IGROV1 ovarian): 19.7 µM
GI50 (SF-539 CNS): 11.2 µM
TGI (SF-539 CNS): 23.3 µM
GI50 (OVCAR-3 ovarian): 10.3 µM
TGI (OVCAR-3 ovarian): 22 µM
GI50 (DU-145 prostate): 16.2 µM
TGI (DU-145 prostate): 29.8 µM
GI50 (RXF 393 renal): 2.86 µM
TGI (RXF 393 renal): 10.8 µM
GI50 (SF-295 CNS): 13.7 µM
TGI (SF-295 CNS): 26.6 µM
GI50 (MDA-MB-435 melanoma): 2.12 µM
TGI (MDA-MB-435 melanoma): 4.44 µM
GI50 (SF-268 CNS): 4.73 µM
TGI (SF-268 CNS): 16.1 µM
